Data set [1] concerns experimental allergic rhinitis models. The data set is described as follows: experimental allergic rhinitis models. Format: in vivo. Conditions: for side-effects: compared with expectation; for reduction in the watery secretion: compared with what is typical for anticholinergic agents.
For data set [2], the system named is animal models of asthma and rhinitis. In words: animal models of asthma and rhinitis. Conditions: in vivo.
For data set [3] the following is noted: in vivo, po.
Data set [4] in a line: water solubility. Format: physicochemical.

Structures are written as SMILES. Where a name gives a salt, the structure may show the parent alone.

Consider `C[N+]1(C)CC[C@@H](OC(=O)[C@](O)(c2ccccc2)C2CCCC2)C1.[Br-]` (single isomer, unassigned) [R,R-isomer, R,R-glycopyrrolate], for which, in data set [1], the side-effects result is on record as “lower side-effects than expected” and the “reduction in the watery secretion” value was “longer-lasting reduction in the watery secretion”.
Regarding `O=C(Nc1c(Cl)cncc1Cl)C(=O)c1cn(Cc2ccc(F)cc2)c2ccc(O)cc12` [AWD 12-281], the “effectiveness in animal models of asthma and rhinitis” value in data set [2] is listed as “highly effective”. Further, the “emesis and signs of nausea” value in data set [3] is “devoid of emesis and signs of nausea”.
Regarding `CN1CCCC(n2nc(Cc3ccc(Cl)cc3)c3ccccc3c2=O)CC1` (stereo not shown) [azelastine hydrochloride], the water solubility entry in data set [4] is recorded as “sufficient”.
`C[N+]1(C)CCC(OC(=O)C(O)(c2ccccc2)C2CCCC2)C1` (racemic) [glycopyrrolate]: in data set [1], the side-effects entry is recorded as “lower side-effects than expected” and the “reduction in the watery secretion” value is given as “longer-lasting reduction in the watery secretion”.

Values taken from patent US20050222102A1, “Treatment of rhinitis with anticholinergics alone or in combination with antihistamines, phosphodiesterase 4 inhibitors, or corticosteroids” (Sofotec GmbH & Co. KG, priority 2004, published 2005).
